This passage reports AC50, EC50 and IC50 results from ChEMBL document CHEMBL1201862, “PubChem BioAssay data set” (2004).

A short description of assay [1]: HepG2 cell cytotoxicity, dose response, cytotoxicity control for Shn3 inhibitor project, CellTiter-Glo, cherry-picked (AID 624134). The assay is classed as functional, cell-based.
The nature of assay [2]: inhibitors of clade B AD8 Env fusion, dose response, cell-based, cherry-pick (AID 652062).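 Note: luciferase signal from cell-cell fusion driven by HIV-1 clade B AD8 Env; potency is for inhibitors of fusion seen as a drop in luminescence.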 The class given is functional.
The next assay concerns A-375. Kind of assay: MITF: Counter assay: A375 proliferation Measured in Cell-Based System Using Plate Reader - 2084-03_Inhibitor_Dose_DryPowder_Activity. [Related pubchem assays (depositor defined):AID488944]. The class given is functional. The conditions noted are these: Homo sapiens.
The nature of assay [3]: off-target signal loss in HeLa-CEM21 co-culture – HeLa F-luc CTL cells, cherry-picked, counter-screen for HIV-1 Env fusion inhibitor project, dose response (AID 652040).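 Note: potency for signal decrease marking cytotoxic or nonspecific inhibition.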 The class given is functional, cell-based. In general terms: Counterscreens check selectivity or assay interference.
The nature of assay [4]: A549 cell cytotoxicity, dose response, cytotoxicity control, plate reader, cherry-pick, antagonist series (AID 743412). The assay is classed as functional, cell-based.
The nature of assay [5]: CEM21 lymphoblast cell cytotoxicity, dose response, cytotoxicity control for viral fusion inhibitor project, CellTiter-Glo luminescence, cherry-picked (AID 652042).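 Note: potency for signal decrease meaning cytotoxicity.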 The assay is classed as functional, cell-based. Background: Cellular ATP, detected with luciferase, serves as a proxy for viable cell number.
Assay [6] deals with T1, Heat shock factor protein 1 (Mus musculus, UniProt P38532).
T1 sequence (P38532 whole entry): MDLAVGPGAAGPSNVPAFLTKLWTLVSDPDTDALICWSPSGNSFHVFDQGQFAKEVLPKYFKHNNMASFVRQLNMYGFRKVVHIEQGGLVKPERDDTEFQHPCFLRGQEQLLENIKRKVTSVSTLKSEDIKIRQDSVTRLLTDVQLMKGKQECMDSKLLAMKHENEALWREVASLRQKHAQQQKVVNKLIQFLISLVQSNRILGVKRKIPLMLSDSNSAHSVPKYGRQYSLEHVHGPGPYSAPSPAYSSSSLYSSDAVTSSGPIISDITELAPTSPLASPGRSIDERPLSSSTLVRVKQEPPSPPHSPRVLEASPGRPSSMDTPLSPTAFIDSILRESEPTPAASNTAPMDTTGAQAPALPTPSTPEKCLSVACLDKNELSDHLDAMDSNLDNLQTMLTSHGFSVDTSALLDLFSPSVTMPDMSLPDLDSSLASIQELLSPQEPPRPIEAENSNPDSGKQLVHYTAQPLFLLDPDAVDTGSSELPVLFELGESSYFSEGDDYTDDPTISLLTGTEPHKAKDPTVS
Kind of assay: inhibition of MG132-induced HSE-luciferase signal, confirmation, cell-based, NIH3T3, luminescence, dose retest (AID 2382).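 Note: NIH3T3 fibroblasts with HSF1-driven luciferase reporter stressed by proteasome inhibitor MG132; luminescence from HSF1-driven luciferase expression after 8 hours of MG132 stress.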 The assay is classed as functional.

Assay [7] is described as follows: HepG2 cell cytotoxicity, dose response, cytotoxicity control, plate reader, cherry-pick, antagonist series (AID 743416). The assay is classed as functional, cell-based.
The nature of assay [8]: Shn3 3'UTR reporter inhibitors, dose response, cell-based, Clone20 osteoblasts, firefly luciferase, cherry-picked (AID 624132).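 Note: firefly luciferase luminescence from reporter carrying the Shn3 3'UTR in osteoblasts.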 The class given is functional.
Assay [9] is described as follows: HEK293 cell cytotoxicity, dose response, cytotoxicity control, plate reader, cherry-picked samples (AID 743446). The assay is classed as functional, cell-based.
For assay [10], the target named is Luciferin 4-monooxygenase (Photinus pyralis, UniProt P08659). Description: firefly luciferase enzyme inhibitors, dose response, biochemical, luminescence (AID 1891).
Assay [11] in a line: ZM109 Env clade C HIV-1 fusion inhibitors, dose response, HeLa effector, CEM target cells, luciferase, cherry-pick (AID 652058). The class given is functional, cell-based.
In assay [12] the target is T2, Microphthalmia-associated transcription factor (Homo sapiens, UniProt O75030).
T2 sequence (O75030 whole entry): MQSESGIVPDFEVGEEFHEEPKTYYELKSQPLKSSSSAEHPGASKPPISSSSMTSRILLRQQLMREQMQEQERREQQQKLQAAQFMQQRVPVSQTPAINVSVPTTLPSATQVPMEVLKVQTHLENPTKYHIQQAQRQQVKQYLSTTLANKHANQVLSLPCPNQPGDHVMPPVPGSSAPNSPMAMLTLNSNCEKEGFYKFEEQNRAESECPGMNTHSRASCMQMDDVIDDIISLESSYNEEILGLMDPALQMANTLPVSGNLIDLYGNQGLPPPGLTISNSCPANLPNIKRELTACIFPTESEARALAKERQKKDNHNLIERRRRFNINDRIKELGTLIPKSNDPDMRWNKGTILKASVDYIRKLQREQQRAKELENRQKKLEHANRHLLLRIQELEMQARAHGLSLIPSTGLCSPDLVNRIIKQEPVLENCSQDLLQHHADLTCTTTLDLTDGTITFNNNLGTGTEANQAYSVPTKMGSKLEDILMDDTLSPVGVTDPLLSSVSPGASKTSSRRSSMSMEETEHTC
Description: TRPM1 promoter luciferase signal decrease, dose response, MITF inhibitor project, cell-based, SK-MEL-5, cherry-picked, set 3 (AID 493073).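 Note: SK-MEL-5 melanoma cells with luciferase driven by the MITF target TRPM1 promoter.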 The assay is classed as functional.

Assay [13] is described as follows: MC4R antagonists, dose response, counter-screen for LGR2 antagonist project, cell-based, plate reader, cherry pick (AID 743444).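 Note: transfected HEK 293 cells stimulated with alpha-MSH peptide; potency of inhibitors of the alpha-MSH evoked signal.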 The assay is classed as functional.
Assay [14] is described as follows: cytotoxicity in HEK-293T cells, dose response, cytotoxicity control for TCR NF-kB inhibitor project, luminescence, T-cell screen hits (AID 489026).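 Note: cells exposed to compound about 14 hours before the viability readout.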 The class given is functional, cell-based.
Assay [15] can be described thus: non-specific cell cytotoxicity, dose response, cytotoxicity control for PAX8 inhibitor project, plate reader, dry powder samples (AID 743021). The assay is classed as functional, cell-based.
Assay [16] is described as follows: LGR2 antagonists, dose response, cell-based, HEK293, CRE-luciferase reporter, cherry pick, set 2 (AID 743343).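 Note: transfected cells were stimulated with diluted bursicon conditioned medium after compound addition.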 The assay is classed as functional. (In general: In a reporter assay the amount or activity of a reporter protein is the signal.)
Assay [17] is described as follows: Luminescence Cell-Based Dose Confirmation HTS to Identify Inhibitors of Platelet Dense Granule Release. [Related pubchem assays: 1663 (Primary HTS), 1678 (Summary of Project)]. The assay is classed as functional.
Assay [18] is described as follows: inhibitors of HIV Env-driven cell fusion, dose response, cherry-pick (AID 652057). The class given is functional, cell-based.
In another assay the target is Paired box protein Pax-8 (Homo sapiens, UniProt Q06710). Description: inhibitors of PAX8-driven TPO luciferase reporter, dose response, RMG-I cells, cherry-pick (AID 687027).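 Note: luciferase reporter driven by Pax8 target thyroperoxidase promoter measured by SteadyGlo luminescence.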 The class given is functional, cell-based.
The target of assay [19] is T3, Intestinal-type alkaline phosphatase (Homo sapiens, UniProt P09923). Description: Dose Response confirmation of uHTS hits from a small molecule inhibitors of human intestinal alkaline phosphatase via a luminescent assay. [Related pubchem assays (depositor defined):AID2544, AID2574]. The assay is classed as functional.
The target in assay [20] is T4, Alkaline phosphatase, tissue-nonspecific isozyme (Homo sapiens, UniProt P05186).
T4 sequence (P05186 whole entry): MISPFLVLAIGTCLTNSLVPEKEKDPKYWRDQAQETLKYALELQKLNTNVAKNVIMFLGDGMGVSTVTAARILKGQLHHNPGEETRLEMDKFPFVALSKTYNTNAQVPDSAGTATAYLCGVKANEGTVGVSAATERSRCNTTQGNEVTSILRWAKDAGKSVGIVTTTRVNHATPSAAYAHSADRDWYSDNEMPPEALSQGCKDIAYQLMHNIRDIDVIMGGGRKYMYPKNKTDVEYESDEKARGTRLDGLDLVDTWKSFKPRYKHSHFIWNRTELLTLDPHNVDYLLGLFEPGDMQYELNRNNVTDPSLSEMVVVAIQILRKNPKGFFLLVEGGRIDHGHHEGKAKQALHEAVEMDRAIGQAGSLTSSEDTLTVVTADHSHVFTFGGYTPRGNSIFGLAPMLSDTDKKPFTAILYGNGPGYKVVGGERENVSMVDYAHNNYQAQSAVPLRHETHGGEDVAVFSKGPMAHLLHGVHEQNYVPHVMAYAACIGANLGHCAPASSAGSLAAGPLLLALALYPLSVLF
Kind of assay: inhibition of tissue-nonspecific alkaline phosphatase – biochemical, dose response (AID 488882). The class given is functional.

Assay [21] has as its target T3, Intestinal-type alkaline phosphatase. Kind of assay: human IAP inhibitors, dose response, biochemical, luminescent, uHTS hits, set 2 (AID 488793). The class given is functional.
Assay [22] has as its target Intestinal-type alkaline phosphatase (Mus musculus, UniProt P24822). Description: PubChem AID 488874. The class given is functional.
Another assay addresses Tumor necrosis factor (Homo sapiens, UniProt P01375). Description: TNFa-triggered NF-kB activation inhibitors, SAR follow-up, cell-based, revised (AID 2337). The assay is classed as functional.
In assay [23] the target is Nucleotide-binding oligomerization domain-containing protein 1 (Homo sapiens, UniProt Q9Y239). Kind of assay: NOD1 signaling inhibitors, SAR follow-up, revised (AID 2333). The assay is classed as functional.
The next assay deals with HEK293. Description: cells. The conditions noted are these: Homo sapiens.
Another assay has as its system Trypanosoma cruzi. Kind of assay: growth inhibition of intracellular Trypanosoma cruzi, dose response, cell-based, plate reader, dry powder, set 3 (AID 493197). The assay is classed as functional.
Assay [24] is described as follows: inhibitors of Trypanosoma cruzi host-cell infection, confirmation, beta-gal luminescence, NIH3T3 host cells (AID 2630). The assay is classed as functional, cell-based. The settings on record: Mus musculus.
A further assay deals with Trypsin (Sus scrofa, UniProt P00761). Kind of assay: porcine trypsin inhibitors, dose response, selectivity assay for Rce1 protease inhibitor project, biochemical, quenched peptide fluorescence, cherry-pick (AID 488789).
The target of the next assay is CAAX prenyl protease 2 (Homo sapiens, UniProt Q9Y256). Kind of assay: human Rce1 protease inhibitors, dose response, biochemical, yeast membranes, quenched-peptide fluorescence, cherry-pick (AID 588849).
In another assay the target is CAAX prenyl protease 1 (Saccharomyces cerevisiae S288c, UniProt P47154). Description: Ste24 protease inhibitors, dose response, biochemical, S. cerevisiae, plate reader, cherry-pick (AID 488815).

SMILES strings stand for the structures. Active and inactive are the calls of the source.

T3 sequence (P09923 whole entry): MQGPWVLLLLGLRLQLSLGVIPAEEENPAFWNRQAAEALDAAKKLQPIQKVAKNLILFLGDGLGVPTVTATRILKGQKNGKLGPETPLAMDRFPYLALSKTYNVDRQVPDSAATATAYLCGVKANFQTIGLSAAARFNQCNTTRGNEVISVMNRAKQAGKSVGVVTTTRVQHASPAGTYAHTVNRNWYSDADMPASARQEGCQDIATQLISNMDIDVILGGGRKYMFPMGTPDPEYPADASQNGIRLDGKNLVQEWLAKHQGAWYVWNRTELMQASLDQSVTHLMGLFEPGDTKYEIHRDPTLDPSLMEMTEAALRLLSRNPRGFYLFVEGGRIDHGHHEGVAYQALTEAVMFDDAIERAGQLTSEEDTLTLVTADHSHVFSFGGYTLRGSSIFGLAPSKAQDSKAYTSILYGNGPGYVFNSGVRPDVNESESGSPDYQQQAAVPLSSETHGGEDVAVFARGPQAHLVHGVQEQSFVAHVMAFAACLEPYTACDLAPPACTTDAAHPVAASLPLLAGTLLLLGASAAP
Sequence of Trypsin (P00761 whole entry): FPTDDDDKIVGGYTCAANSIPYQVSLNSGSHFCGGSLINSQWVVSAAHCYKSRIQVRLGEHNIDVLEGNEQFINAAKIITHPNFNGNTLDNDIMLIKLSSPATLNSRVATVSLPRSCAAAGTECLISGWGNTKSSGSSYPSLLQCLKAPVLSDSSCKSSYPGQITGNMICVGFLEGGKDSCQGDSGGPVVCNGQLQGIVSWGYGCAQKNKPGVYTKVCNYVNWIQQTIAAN
Sequence of Tumor necrosis factor (P01375 whole entry, the tested form may be a part): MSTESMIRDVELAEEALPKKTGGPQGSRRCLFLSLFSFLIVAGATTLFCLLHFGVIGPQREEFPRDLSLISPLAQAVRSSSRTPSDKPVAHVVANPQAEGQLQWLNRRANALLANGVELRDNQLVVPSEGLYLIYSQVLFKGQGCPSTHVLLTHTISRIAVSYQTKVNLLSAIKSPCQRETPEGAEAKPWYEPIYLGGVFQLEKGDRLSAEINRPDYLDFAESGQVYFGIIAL
Sequence of Luciferin 4-monooxygenase (P08659 whole entry, the tested form may be a part): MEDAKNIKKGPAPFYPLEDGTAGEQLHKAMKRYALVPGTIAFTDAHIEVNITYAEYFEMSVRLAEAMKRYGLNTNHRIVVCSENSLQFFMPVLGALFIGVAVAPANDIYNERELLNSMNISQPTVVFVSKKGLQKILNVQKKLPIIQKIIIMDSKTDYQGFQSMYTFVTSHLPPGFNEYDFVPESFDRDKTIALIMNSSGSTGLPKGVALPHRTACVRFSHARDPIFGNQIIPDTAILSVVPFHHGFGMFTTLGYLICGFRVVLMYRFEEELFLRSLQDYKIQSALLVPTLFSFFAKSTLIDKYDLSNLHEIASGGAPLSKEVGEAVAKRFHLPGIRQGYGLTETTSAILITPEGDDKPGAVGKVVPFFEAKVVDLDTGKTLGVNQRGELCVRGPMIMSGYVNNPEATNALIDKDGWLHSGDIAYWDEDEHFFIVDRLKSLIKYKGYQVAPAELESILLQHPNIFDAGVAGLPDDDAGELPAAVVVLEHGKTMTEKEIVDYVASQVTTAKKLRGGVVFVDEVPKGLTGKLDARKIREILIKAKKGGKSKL
Sequence of CAAX prenyl protease 1 (P47154 whole entry): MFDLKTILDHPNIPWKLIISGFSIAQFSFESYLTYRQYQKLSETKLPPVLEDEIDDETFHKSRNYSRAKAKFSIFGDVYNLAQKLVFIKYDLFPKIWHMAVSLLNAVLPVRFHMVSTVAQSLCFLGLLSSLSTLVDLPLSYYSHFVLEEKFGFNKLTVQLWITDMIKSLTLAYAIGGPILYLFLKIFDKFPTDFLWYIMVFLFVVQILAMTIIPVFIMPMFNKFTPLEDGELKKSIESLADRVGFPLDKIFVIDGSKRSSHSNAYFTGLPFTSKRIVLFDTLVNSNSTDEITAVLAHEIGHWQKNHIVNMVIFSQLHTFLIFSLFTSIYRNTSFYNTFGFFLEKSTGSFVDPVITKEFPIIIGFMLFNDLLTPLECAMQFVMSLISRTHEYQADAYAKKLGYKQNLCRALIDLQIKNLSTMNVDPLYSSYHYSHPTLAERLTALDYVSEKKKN
Sequence of Paired box protein Pax-8 (Q06710 whole entry): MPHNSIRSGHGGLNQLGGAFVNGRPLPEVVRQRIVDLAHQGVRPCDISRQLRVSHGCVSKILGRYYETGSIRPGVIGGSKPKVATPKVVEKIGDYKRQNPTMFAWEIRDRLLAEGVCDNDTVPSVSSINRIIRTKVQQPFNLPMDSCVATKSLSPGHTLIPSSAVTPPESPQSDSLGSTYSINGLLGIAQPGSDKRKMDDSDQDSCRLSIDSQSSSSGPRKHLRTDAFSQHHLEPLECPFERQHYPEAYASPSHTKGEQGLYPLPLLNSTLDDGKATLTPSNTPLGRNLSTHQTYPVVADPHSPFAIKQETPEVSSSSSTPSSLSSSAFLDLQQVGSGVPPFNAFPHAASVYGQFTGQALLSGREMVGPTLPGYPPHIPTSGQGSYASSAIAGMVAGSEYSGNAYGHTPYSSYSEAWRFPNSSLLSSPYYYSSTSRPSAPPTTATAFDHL
Sequence of Intestinal-type alkaline phosphatase (Mus musculus, UniProt P24822) (P24822 whole entry): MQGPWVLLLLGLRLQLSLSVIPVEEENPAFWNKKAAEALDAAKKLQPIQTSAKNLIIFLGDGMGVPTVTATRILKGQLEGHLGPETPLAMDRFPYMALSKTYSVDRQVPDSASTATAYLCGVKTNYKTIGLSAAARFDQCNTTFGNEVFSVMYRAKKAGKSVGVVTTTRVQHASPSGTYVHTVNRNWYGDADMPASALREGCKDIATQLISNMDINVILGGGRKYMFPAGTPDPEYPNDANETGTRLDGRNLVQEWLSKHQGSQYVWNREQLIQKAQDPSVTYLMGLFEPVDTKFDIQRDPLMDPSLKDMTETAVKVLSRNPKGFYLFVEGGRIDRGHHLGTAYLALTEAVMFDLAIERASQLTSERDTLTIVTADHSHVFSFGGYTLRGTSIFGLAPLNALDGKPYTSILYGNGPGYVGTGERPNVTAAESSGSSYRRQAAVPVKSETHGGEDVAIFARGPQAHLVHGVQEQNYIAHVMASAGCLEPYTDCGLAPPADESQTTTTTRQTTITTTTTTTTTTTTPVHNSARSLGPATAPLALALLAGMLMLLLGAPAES
Sequence of CAAX prenyl protease 2 (Q9Y256 whole entry): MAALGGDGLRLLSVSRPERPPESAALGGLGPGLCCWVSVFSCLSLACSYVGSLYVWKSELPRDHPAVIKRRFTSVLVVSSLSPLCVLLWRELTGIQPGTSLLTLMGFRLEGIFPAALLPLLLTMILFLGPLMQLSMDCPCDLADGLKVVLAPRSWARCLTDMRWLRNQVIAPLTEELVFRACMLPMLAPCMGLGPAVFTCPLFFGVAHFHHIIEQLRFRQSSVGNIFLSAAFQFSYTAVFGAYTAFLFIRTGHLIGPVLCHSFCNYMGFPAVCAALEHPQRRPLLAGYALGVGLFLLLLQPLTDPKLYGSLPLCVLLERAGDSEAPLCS
Sequence of Nucleotide-binding oligomerization domain-containing protein 1 (Q9Y239 whole entry, the tested form may be a part): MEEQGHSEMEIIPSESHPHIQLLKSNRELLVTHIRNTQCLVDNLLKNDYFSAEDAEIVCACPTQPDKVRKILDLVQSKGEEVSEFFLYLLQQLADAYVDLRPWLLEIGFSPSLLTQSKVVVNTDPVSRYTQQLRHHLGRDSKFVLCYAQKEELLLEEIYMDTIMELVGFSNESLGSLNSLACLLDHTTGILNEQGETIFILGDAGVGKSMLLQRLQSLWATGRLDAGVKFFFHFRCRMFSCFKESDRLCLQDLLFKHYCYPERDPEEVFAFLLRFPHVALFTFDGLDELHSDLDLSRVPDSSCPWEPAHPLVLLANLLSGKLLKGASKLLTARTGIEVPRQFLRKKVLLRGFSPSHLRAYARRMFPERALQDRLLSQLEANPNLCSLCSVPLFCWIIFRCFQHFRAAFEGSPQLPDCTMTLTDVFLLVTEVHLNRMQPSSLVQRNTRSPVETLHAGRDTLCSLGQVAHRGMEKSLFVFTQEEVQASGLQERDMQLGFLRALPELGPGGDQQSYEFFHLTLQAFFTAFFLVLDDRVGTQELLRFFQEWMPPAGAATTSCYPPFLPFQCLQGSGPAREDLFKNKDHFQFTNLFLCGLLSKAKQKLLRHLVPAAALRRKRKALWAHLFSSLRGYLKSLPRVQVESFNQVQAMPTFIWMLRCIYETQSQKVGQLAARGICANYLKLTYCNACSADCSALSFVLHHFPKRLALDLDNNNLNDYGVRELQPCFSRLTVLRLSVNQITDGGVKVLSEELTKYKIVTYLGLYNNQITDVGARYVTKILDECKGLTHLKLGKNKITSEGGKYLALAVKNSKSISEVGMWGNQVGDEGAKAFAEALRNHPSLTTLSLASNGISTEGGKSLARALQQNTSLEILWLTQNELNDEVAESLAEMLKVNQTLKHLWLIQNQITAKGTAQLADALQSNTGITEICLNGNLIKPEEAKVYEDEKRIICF

One may read the AC50 as the midpoint of the concentration-response curve, whichever way the signal moves. In general, EC50 refers to the concentration needed to bring the measured effect to its halfway point. In general, IC50 refers to the concentration needed to halve the response being measured. As for `C=CCn1c(C)cc(C2=NN=C(NCC)SC2)c1C`, the AC50 in assay [1] was 26 µM (active); in assay [2], 0.359 µM (active); with A-375, 25.7 µM (active); in assay [3], 0.554 µM (active); in assay [4], 11.7 µM (active); in [5] it was 34.7 µM (active). For the same compound, the AC50 was 3.64 µM (active) in assay [7]; < 0.26 µM (active) in assay [8]; 14.5 µM (active) in assay [9]; 2.94 µM (active) in assay [11]; 0.056 µM (active) in [12]; < 0.068 µM (active) in [13]. For the same compound, the AC50 in assay [15] was 8.07 µM (active); in assay [16] it was < 0.068 µM (active); in assay [18] it was 0.295 µM (active); at Paired box protein Pax-8, 0.267 µM (active). Further, the results for the EC50 in assay [6], in assay [10] and in assay [17] were < 0.16 µM (active), 5.03 µM (active) and 2.02 µM (active), respectively. In addition, in [14], the IC50 is > 80 µM (inactive).
For `O=C(/C=C/c1ccccc1O)c1ccco1`, the IC50 was 47.6 µM (inactive) in assay [19], 71.8 µM (active) in assay [20], 75.8 µM (active) in assay [21] and 62.9 µM (active) in assay [22].
As to `COc1ccc(N2CCN(S(=O)(=O)c3ccc4c(c3)CC(C)N4C(C)=O)CC2)cc1` (configuration not stated), the IC50 at Tumor necrosis factor is 4.3 µM (active); in assay [23], 3.63 µM (active); in the assay with HEK293, > 20 µM (inactive).
In the case of `COc1ccc(CN2CCCC(C(=O)N3CCCC3)C2)c(OC)c1OC` (configuration not stated), the AC50 with Trypanosoma cruzi was 1.01 µM (active). Also, the concentration giving a half-maximal response (EC50) in assay [24] is 0.042 µM (active).
For the compound `CCN(CC)CCn1c2ccccc2c2cnc(/N=C/N(C)C)c(C#N)c21`, the AC50 was 18 µM (active) at Trypsin, 11.4 µM (active) at CAAX prenyl protease 2 and 4.5 µM (active) on CAAX prenyl protease 1.
